# Patent US20170216252A1, “ANTI-BACTERIAL PYRUVATE KINASE MODULATOR COMPOUNDS, COMPOSITIONS, USES AND METHODS” (SIMON FRASER UNIVERSITY, priority 2014, published 2017)
# Several values for one entry are separate records, joined by “and”; a condition that tells them apart may be missing. Equal entries are not always repeated. Where two headings read alike, the source gives them in different places.
# Biological target: T1, MRSA PK (Staphylococcus aureus, UniProt Q6GG09)
# T1 construct: His tag (pET-28a(+) vector) (N); made in house; host or cells: E. coli BL-21 (DE3)
# Test: MRSA PK activity, continuous LDH-coupled assay
# Format: biochemical, S. aureus (MRSA strain Sanger 252)
# Details: for inhibition at 10 µM: read-out: % Inhibition MRSA PK
# In short: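 Purified His-tagged MRSA PK (15 nM, E. coli-expressed) started reactions run up to 5 min at 30 °C. Activity was followed continuously by LDH-coupled NADH oxidation at 340 nm, with DMSO ≤1%. IC50 came from four-parameter variable-slope fits.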
# [1] = Tables 1-6, 2 mM ADP, 10 mM PEP, 15 nM PK, read-out: IC50
# T1 sequence (Q6GG09 whole entry): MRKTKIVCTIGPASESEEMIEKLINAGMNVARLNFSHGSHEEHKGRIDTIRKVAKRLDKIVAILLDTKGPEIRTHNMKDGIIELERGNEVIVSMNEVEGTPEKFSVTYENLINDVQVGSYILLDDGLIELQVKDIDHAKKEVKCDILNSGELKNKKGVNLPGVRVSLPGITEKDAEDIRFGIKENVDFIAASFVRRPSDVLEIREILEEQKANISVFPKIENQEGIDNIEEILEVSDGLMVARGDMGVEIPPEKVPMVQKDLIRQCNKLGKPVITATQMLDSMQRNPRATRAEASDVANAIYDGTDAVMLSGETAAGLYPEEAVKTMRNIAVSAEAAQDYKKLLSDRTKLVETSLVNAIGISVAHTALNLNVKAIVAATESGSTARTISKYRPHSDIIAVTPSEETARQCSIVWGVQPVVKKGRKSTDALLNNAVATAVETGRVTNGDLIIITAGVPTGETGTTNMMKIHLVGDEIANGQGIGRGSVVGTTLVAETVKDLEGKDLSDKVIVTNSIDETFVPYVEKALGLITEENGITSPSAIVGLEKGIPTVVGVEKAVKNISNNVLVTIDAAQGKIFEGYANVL
SMILES,IC50 [1],inhibition at 10 µM [%],IC50 [nM]
"Brc1ccc2c(c1)cc(-c1cc3ccc(Br)cc3[nH]1)n2CCN1CCOCC1 [Compound 20b, 4-(2-(5,6′-dibromo-1H,1′H-[2,2′-biindol]-1-yl)ethyl)morpholine]",1.2 nM,101,–
"Brc1cc2cc(-c3cc4cc(Br)c(Br)cc4[nH]3)[nH]c2cc1Br [Compound 10l, 5,5′,6,6′-Tetrabromo-1H,1′H-2,2′-biindole]",2 nM,97.6,–
"Brc1ccc2cc(CCc3cc4ccc(Br)cc4[nH]3)[nH]c2c1 [Compound 28a, 1,2-bis(6-bromo-1H-indol-2-yl)ethane]",6 nM and 6.5 nM,93.4,–
"Brc1ccc2cc(-c3cc4ccc(Br)cc4[nH]3)[nH]c2c1 [Compound 10b, 6,6′-Dibromo-1H,1′H-2,2′-biindole]",7 nM,84.9,–
"OCCn1c(-c2cc3ccc(Br)cc3[nH]2)cc2cc(Br)ccc21 [Compound 17, 2-(5,6′-Dibromo-1H, 1′H-[2,2′-biindol]-1-yl)ethanol]",1.3 nM,101,–
"Cn1c(-c2cc3ccc(Br)cc3[nH]2)cc2cc(Br)ccc21 [Compound 12a, 5,6′-Dibromo-1-methyl-1H,1′H-2,2′-biindole]",1 nM,99,–
"Brc1ccc2cc(-c3nc4ccccc4s3)[nH]c2c1 [Compound 22a, 2-(6-Bromo-1H-indol-2-yl)benzo[d]thiazole]",152 nM,89.8,–
"Brc1ccc2[nH]c(-c3cc4ccc(Br)cc4[nH]3)cc2c1 [Compound 10c, 5,6-Bibromo-1H,1′H-2,2′-biiindole]",2.2 nM,97.8,–
"O=C(c1c(-c2cc3cc(Cl)ccc3[nH]2)[nH]c2cc(Br)ccc12)C(F)(F)F [Compound 178, 1-(6-bromo-5′-chloro-1H,1′H-[2,2′-biindol]-3-yl)-2,2,2-trifluoroethan-1-one]",–,–,< 50
"Brc1ccc2[nH]c(-c3cc4cc(Br)ccc4[nH]3)cc2c1 [Compound 10i, 5,5′-Bibromo-1H,1′H-2,2′-biindole]",3 nM,71,–
"COc1cc(-c2cc3ccccc3[nH]2)ccc1-c1cc2ccc(Br)cc2[nH]1 [Compound 33e, 2-(4-(1H-indol-2-yl)-2-methoxyphenyl)-6-bromo-1H-indole]",2.1 nM,62.2,–
"CN1CCN(CCn2c(-c3cc4ccc(Br)cc4[nH]3)cc3cc(Br)ccc32)CC1 [Compound 20a, 5,6′-Dibromo-1-(2-(4-methylpiperazin-1-yl)ethyl)-1H,1′H-2,2′-biindole]",2 nM,100,–
"Brc1ccc2cc(-c3cc4cc(Br)c(Br)cc4[nH]3)[nH]c2c1 [Compound 10k, 5,6,6′-Tribromo-1H,1′H-2,2′-biindole]",1.5 nM,94.1,–
"Brc1ccc2cc(/C=C/c3cc4ccccc4[nH]3)[nH]c2c1 [Compound 27a, (E)-2-(2-(1H-indol-2-yl)vinyl)-6-bromo-1H-indole]",4.5 nM,93.4,–
"Brc1ccc2[nH]c(C#Cc3cc4ccc(Br)cc4[nH]3)cc2c1 [Compound 25c, 6-Bromo-2-((5-bromo-1H-indol-2-yl)ethynyl)-1H-indole]",4.7 nM,86.3,–
"Brc1ccc2cc(-c3cc4ccccc4o3)[nH]c2c1 [Compound 22b, 2-(Benzofuran-2-yl)-6-bromo-1H-indole]",108 nM,95.9,–
